Test results taken from patent US20080096208A1, “BIOMARKERS FOR ASSESSING RESPONSE TO C-MET TREATMENT” (priority 2006, published 2008).

Key:
[1] = tested on: PC-3 prostate carcinoma cells; assay: Taqman real-time PCR of marker mRNA levels in HGF-stimulated PC-3 cells; type: cell-based
Excerpt: In order to identify biomarkers for the HGF response and potential inhibition of this response by small molecule HGF receptor (c-met) inhibitors, a micro array analysis of PC-3 cells stimulated by HGF over a time course of 1 hr to 2 days was used. TAQMAN was employed to examine mRNA levels of VEGF, CD44, Fibronectin, and MMP-1, each of which has been shown by others to be induced by HGF. Briefly, RNA is isolated by lysis of cultured cells or homogenization of tumor tissue in a guanidine solution, Trireagent from Molecular Research Center, Inc. The RNA is purified by a Qiagen column methodology under conditions recommended by the manufacturer and DNAse treated. Specific levels of mRNAs for the indicated genes are determined by Real-Time PCR, Taqman analysis using probes and primers specific for the genes examined and purchased from Applied Biosystems and the SDS2.1 quantitation software. Quantitation is performed by comparison of the cycle number where the sample crosses a threshold value vs a standard curve made of a pool of the RNA samples. Normalization is performed by comparing the amount of specific mRNA to that of 18S RNA or GAPDH mRNA. […] This response was then evaluated upon administration of the c-met inhibitor, 3DP-669366. […] The kinetics of the induction and the amplitude of the mRNA levels differ between the cell lines examined. The micro-array analysis identified LDL Receptor 1 (LDL-R1) as another protein that is induced by HGF and whose level of expression is diminished by treatment of cells with a HGF receptor inhibitor. This analysis was then evaluated upon administration of the acylhydrazone series of c-met inhibitors, JNJ-28823184 and JNJ-38429274. In in vivo tumor xenografts, the biomarkers identified by examination of cell culture responses to c-met inhibitors are also modulated in the in vivo setting. In a U87MG tumor xenograft in nude mice, a decrease in the mRNA levels of CD44, VEGF, LDLR1, and Osteopontin was observed.

PC-3 cells = assay: Micro array analysis of PC-3 cells stimulated by HGF; type: cell-based
Excerpt: In order to identify biomarkers for the HGF response and potential inhibition of this response by small molecule HGF receptor (c-met) inhibitors, a micro array analysis of PC-3 cells stimulated by HGF over a time course of 1 hr to 2 days was used. TAQMAN was employed to examine mRNA levels of VEGF, CD44, Fibronectin, and MMP-1, each of which has been shown by others to be induced by HGF. Briefly, RNA is isolated by lysis of cultured cells or homogenization of tumor tissue in a guanidine solution, Trireagent from Molecular Research Center, Inc. The RNA is purified by a Qiagen column methodology under conditions recommended by the manufacturer and DNAse treated. Specific levels of mRNAs for the indicated genes are determined by Real-Time PCR, Taqman analysis using probes and primers specific for the genes examined and purchased from Applied Biosystems and the SDS2.1 quantitation software. Quantitation is performed by comparison of the cycle number where the sample crosses a threshold value vs a standard curve made of a pool of the RNA samples. Normalization is performed by comparing the amount of specific mRNA to that of 18S RNA or GAPDH mRNA. […] This response was then evaluated upon administration of the c-met inhibitor, 3DP-669366. […] This analysis was then evaluated upon administration of the acylhydrazone series of c-met inhibitors, JNJ-28823184 and JNJ-38429274. […]

[2] = between 8 and 48 hours following HGF addition, p<0.01

HGF: hepatocyte growth factor (also known as scatter factor), ligand of the c-met receptor
induction of Fibronectin mRNA by HGF [1]: did not show a statistically significant induction | induction of VEGF mRNA by HGF ([1]; between 8 and 48 hours following HGF addition, p<0.001): statistically significant induction | induction of CD44 mRNA by HGF [1, 2]: statistically significant induction | induction of MMP-1 mRNA by HGF [1, 2]: statistically significant induction | induction of LDL Receptor 1 (LDL-R1) by HGF (PC-3 cells): induced
